The text below walks through data of ChEMBL document CHEMBL1201862, “PubChem BioAssay data set” (2004).

Some test systems named below: HCT-15; RPMI-8226; HOP-62; TK-10; DU-145; UACC-62; SK-MEL-2; NCI-H226; HT-29; SK-MEL-5; SNB-75; K562; SK-MEL-28; HOP-92; Malme-3M; MCF7; NCI-H460; SNB-19; SF-539.
Assay in all cases: DTP human tumour cell line panel, 48 h

Structures are written as SMILES.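 Values below derive from 48-hour exposures of cells grown in 96-well plates, with endpoints linearly interpolated between the two concentrations bracketing the appropriate inhibition level. Abbreviation: GI50, concentration required for 50% inhibition of growth.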 Active and inactive are the calls of the source. Cut-off read from the data, not from the text of the source: active = GI50 up to about 1.1 µM and inactive = higher. Where only a bound is given, the exact number is not on record here.

The term GI50 denotes the concentration that inhibits growth by half. As to `O=C(O)C(=Cc1ccc(-c2ccccc2)cc1)C(=O)O`, the 50% growth inhibitory concentration (GI50) was 12.2 µM with HCT-15; 4.26 µM (inactive) in the test with RPMI-8226; 6.75 µM (inactive) with HOP-62; 13.8 µM (inactive) in the test on TK-10; 3.66 µM (inactive) in the test on DU-145; 12.3 µM (inactive) with UACC-62. The GI50 in the test on SK-MEL-2 was 6.95 µM (inactive); in the test with NCI-H226 it was 22 µM (inactive); with HT-29, > 25.8 µM (inactive); in the test with SK-MEL-5, 11 µM (inactive); in the test on SNB-75, 10.6 µM (inactive); with K562, 5.7 µM (inactive). Also, the GI50 in the test with SK-MEL-28 was 15.8 µM (inactive); in the test with HOP-92 it was 23.8 µM (inactive); in the test with Malme-3M, 14.7 µM (inactive); with MCF7, 11.5 µM (inactive); with NCI-H460 it was 14.9 µM (inactive); with SNB-19 it was 13.6 µM (inactive). Moreover, the GI50 in the test with SF-539 was 4.78 µM (inactive).
Consider `CC1(C)[N+]([O-])=[N+]([O-])C1(Br)c1ccccc1` (stereo unspecified), for which the 50% growth inhibitory concentration (GI50) in the test on HCT-15 is 64.6 µM; with RPMI-8226 it was 42.7 µM (inactive); in the test with HOP-62 it was > 100 µM (inactive); with TK-10, > 100 µM (inactive); in the test with DU-145, 79.1 µM (inactive); in the test with UACC-62, > 100 µM (inactive). The GI50 is > 100 µM (inactive) in the test on SK-MEL-2; > 100 µM (inactive) in the test with NCI-H226; 39.3 µM (inactive) in the test on HT-29; > 100 µM (inactive) with SK-MEL-5; > 100 µM (inactive) in the test with SNB-75; 85.7 µM (inactive) in the test with K562. For the same molecule, the GI50 in the test with SK-MEL-28 was > 100 µM (inactive); in the test on HOP-92 it was > 100 µM (inactive); in the test with Malme-3M, > 100 µM (inactive); with MCF7, 72.9 µM (inactive); in the test on NCI-H460 it was 68.2 µM (inactive); in the test with SNB-19, > 100 µM (inactive). Moreover, in the test on SF-539, the GI50 was > 100 µM (inactive).
As for `COc1cc(C2c3cc4c(cc3OC(O)C2C)OCO4)cc(OC)c1OC` (stereo unspecified), the GI50 with HCT-15 was 0.403 µM; in the test with RPMI-8226 it was 0.264 µM (active); with HOP-62, 0.306 µM (active); with TK-10, 34.9 µM (inactive); with DU-145, 0.414 µM (active); in the test with UACC-62, 0.349 µM (active). Moreover, the concentration for 50% growth inhibition (GI50) with SK-MEL-2 was 0.486 µM (active); in the test with NCI-H226 it was 0.708 µM (active); in the test with HT-29 it was 0.346 µM (active); in the test on SK-MEL-5, 0.272 µM (active); in the test with SNB-75, 0.244 µM (active); in the test on K562, 0.142 µM (active). Further, the 50% growth inhibitory concentration (GI50) is 0.863 µM (active) with SK-MEL-28; 0.562 µM (active) in the test on HOP-92; 0.431 µM (active) in the test on Malme-3M; 0.29 µM (active) in the test on MCF7; 0.355 µM (active) in the test with NCI-H460; 0.434 µM (active) in the test with SNB-19. In addition, in the test on SF-539, the 50% growth inhibitory concentration (GI50) was 0.294 µM (active).
`CCOc1ccc(Nc2nc(N)nc(N)c2N)cc1`: the GI50 was 38.9 µM in the test on HCT-15; 12.1 µM (inactive) in the test on RPMI-8226; 24.7 µM (inactive) in the test on HOP-62; > 100 µM (inactive) in the test with TK-10; > 100 µM (inactive) in the test on DU-145; 32.7 µM (inactive) in the test on UACC-62. Further, the GI50 is 44.9 µM (inactive) with SK-MEL-2; 42.2 µM (inactive) with NCI-H226; 17.8 µM (inactive) with HT-29; 61.5 µM (inactive) in the test on SK-MEL-5; 20.6 µM (inactive) in the test with SNB-75; 13.6 µM (inactive) in the test with K562. The GI50 with SK-MEL-28 is > 100 µM (inactive); in the test with HOP-92 it was 50.9 µM (inactive); in the test on Malme-3M, 12.6 µM (inactive); with MCF7, 18.8 µM (inactive); in the test on NCI-H460, 29.1 µM (inactive); in the test on SNB-19 it was 25.2 µM (inactive). In addition, the GI50 in the test with SF-539 was 21.7 µM (inactive).
In the case of `COCOc1ccc(C2(O)Oc3cc(OCOC)ccc3C2C)c(O)c1` (stereo unspecified), the GI50 in the test on HCT-15 was 10.5 µM; in the test on RPMI-8226 it was 11.7 µM (inactive); with HOP-62, 18 µM (inactive); with TK-10, 17.9 µM (inactive); in the test on DU-145, 13.1 µM (inactive); with UACC-62, 12.9 µM (inactive). Moreover, the GI50 was 18.4 µM (inactive) with SK-MEL-2; 14.8 µM (inactive) in the test on NCI-H226; 18.1 µM (inactive) with HT-29; 11 µM (inactive) in the test on SK-MEL-5; 15.3 µM (inactive) with SNB-75; 10.7 µM (inactive) with K562. In addition, the GI50 in the test on SK-MEL-28 was 17.2 µM (inactive); in the test with HOP-92 it was 16.2 µM (inactive); in the test on Malme-3M, 15.3 µM (inactive); with MCF7 it was 14.3 µM (inactive); with NCI-H460 it was 13.4 µM (inactive); with SNB-19 it was 16 µM (inactive). Further, the GI50 in the test with SF-539 is 15.7 µM (inactive).
Regarding `CN1CCN(CCCCNc2cc3c4ccccc4c(NCCCCN4CCN(C)CC4)cc3c3ccccc23)CC1`, the concentration for 50% growth inhibition (GI50) was 1.34 µM with HCT-15; 1.38 µM (inactive) in the test on RPMI-8226; 3.59 µM (inactive) in the test on HOP-62; 6.95 µM (inactive) in the test on TK-10; 1.67 µM (inactive) in the test on DU-145; 2.28 µM (inactive) in the test on UACC-62. The GI50 with SK-MEL-2 is 5.05 µM (inactive); in the test with NCI-H226, 13.4 µM (inactive); in the test with HT-29, 1.95 µM (inactive); with SK-MEL-5 it was 1.44 µM (inactive); in the test on SNB-75, 3.38 µM (inactive); in the test with K562, 1.57 µM (inactive). The GI50 in the test with SK-MEL-28 is 7.67 µM (inactive); in the test on HOP-92, 6.61 µM (inactive); in the test with Malme-3M it was 2.15 µM (inactive); in the test on MCF7, 1.34 µM (inactive); in the test on NCI-H460 it was 1.53 µM (inactive); in the test with SNB-19, 4.49 µM (inactive). The GI50 in the test with SF-539 is 1.94 µM (inactive).
With `CSC1C(=O)Nc2ccc3ccccc3c21` (stereo unspecified), the concentration for 50% growth inhibition (GI50) in the test with HCT-15 is 19.3 µM; with RPMI-8226, 3.13 µM (inactive); in the test on HOP-62 it was 34.3 µM (inactive); with TK-10, 16.8 µM (inactive); in the test on DU-145, > 100 µM (inactive); in the test with UACC-62 it was 17.5 µM (inactive). In addition, the GI50 with SK-MEL-2 is 27.1 µM (inactive); with NCI-H226, 45.5 µM (inactive); in the test with HT-29, > 100 µM (inactive); with SK-MEL-5 it was 21.9 µM (inactive); in the test with SNB-75, 22.8 µM (inactive); in the test with SK-MEL-28, > 100 µM (inactive). The GI50 in the test on HOP-92 was 16.3 µM (inactive); in the test on Malme-3M it was 27.2 µM (inactive); in the test with MCF7 it was 38.1 µM (inactive); with NCI-H460, > 100 µM (inactive); with SNB-19 it was 89.5 µM (inactive); with SF-539, 17.4 µM (inactive).
Take `O=C(O)[C@H]1NC[C@@H]2ON=C(Br)[C@@H]21`: the concentration for 50% growth inhibition (GI50) is > 100 µM in the test on HCT-15; > 100 µM (inactive) in the test on RPMI-8226; > 100 µM (inactive) with HOP-62; > 100 µM (inactive) with TK-10; > 100 µM (inactive) with DU-145; > 100 µM (inactive) in the test on UACC-62. Besides, the GI50 in the test on SK-MEL-2, with NCI-H226, with HT-29, in the test with SK-MEL-5, in the test on SNB-75 and with K562 was > 100 µM (inactive) in each case. The GI50 in the test with SK-MEL-28, with HOP-92, in the test on Malme-3M, in the test on MCF7, with NCI-H460 and in the test on SNB-19 was > 100 µM (inactive) each time. For the same molecule, the GI50 in the test on SF-539 is > 100 µM (inactive).
Take `O=C1CSC(c2ccccc2[N+](=O)[O-])N1c1ccc(-n2c(-c3ccccc3)nc3ccccc3c2=O)cc1` (stereo unspecified): the concentration for 50% growth inhibition (GI50) in the test on HCT-15 was 42.3 µM; in the test on RPMI-8226 it was > 100 µM (inactive); in the test with HOP-62, 21.3 µM (inactive); in the test on TK-10, 29.6 µM (inactive); in the test on DU-145 it was > 100 µM (inactive); in the test with UACC-62, 33.4 µM (inactive). Moreover, the GI50 in the test with SK-MEL-2 was 55.8 µM (inactive); with NCI-H226, 28.4 µM (inactive); with HT-29 it was 54.3 µM (inactive); with SK-MEL-5, 70.5 µM (inactive); in the test on SNB-75, 19.5 µM (inactive); in the test on K562, 79.6 µM (inactive). Further, the GI50 in the test on SK-MEL-28 was > 100 µM (inactive); in the test on HOP-92, 27 µM (inactive); in the test with Malme-3M, 39.8 µM (inactive); in the test on MCF7, 32.4 µM (inactive); with NCI-H460, 31.5 µM (inactive); in the test with SNB-19, 32.7 µM (inactive). The GI50 with SF-539 is 59 µM (inactive).
Regarding `C=C(C)[C@H]1CC[C@@]23O[C@@H]2[C@@H](C[C@@]2(C)CC(=O)[C@H](CC(=O)C1)O2)OC(=O)[C@@]12CC[C@H](C(=C)C)CC(=O)C[C@H]4O[C@](C)(CC4=O)C[C@@H](OC3=O)[C@@H]1O2` [SINGARDIN], the 50% growth inhibitory concentration (GI50) was > 100 µM with HCT-15; > 100 µM (inactive) in the test on RPMI-8226; > 100 µM (inactive) with HOP-62; > 100 µM (inactive) in the test with TK-10; > 100 µM (inactive) in the test with DU-145; > 100 µM (inactive) with UACC-62. The GI50 in the test on SK-MEL-2 was > 100 µM (inactive); with NCI-H226, > 100 µM (inactive); in the test with HT-29, > 100 µM (inactive); with SK-MEL-5, 74.5 µM (inactive); in the test with SNB-75 it was > 100 µM (inactive); in the test on K562, > 100 µM (inactive). In addition, the GI50 with SK-MEL-28, in the test on HOP-92, in the test with Malme-3M, in the test with MCF7, with SNB-19 and in the test on SF-539 was > 100 µM (inactive) each time.
For the molecule `COC(=O)C1C(O)CCC2CN3CCc4c([nH]c5cccc(OC)c45)C3CC21` (stereo unspecified), the GI50 with HCT-15 was > 100 µM; in the test on RPMI-8226 it was > 100 µM (inactive); with HOP-62, > 100 µM (inactive); in the test with TK-10, > 100 µM (inactive); with DU-145 it was > 100 µM (inactive); with UACC-62, > 100 µM (inactive). Further, the GI50 with SK-MEL-2, in the test on NCI-H226, with HT-29, in the test with SNB-75, with K562 and in the test on SK-MEL-28 was > 100 µM (inactive) in each case. The GI50 in the test on HOP-92, in the test with Malme-3M, with MCF7, in the test with NCI-H460, with SNB-19 and with SF-539 was > 100 µM (inactive) each time.
